{"source": "patent US11135214B2", "about": "“Methods for enhancing the bio availability and exposure of a voltage-gated potassium channel opener” (priority 2018, dated 2021)", "key": {"[1]": {"test_system": "spontaneous brain oscillations", "experiment": "TMS crossover study, resting state EEG", "format": "in vivo, human", "excerpt": "Sensor-level delta (2-4 Hz), theta (4-7 Hz), alpha (8-12 Hz) and beta (13-30 Hz) frequency activity was estimated using a Fast Fourier Transform (FFT) approach. Power of all frequencies between 2 and 30 Hz were estimated, using a frequency resolution of 0.5 Hz. A non-parametric dependent samples t-test based on a permutation approach (1500 permutations) was used to test differences between drug conditions on all EEG sensors."}, "[2]": {"experiment": "First-in-human SAD and MAD study, safety and tolerability", "format": "in vivo", "details": "for Cmax: human, plasma, oral, read-out: individual Cmax levels up to which well tolerated", "protocol": "A first-in-human study was conducted to evaluate the safety, tolerability and pharmacokinetics (PK) of single and multiple ascending doses (SAD and MAD) of oral Compound A.\nIn the SAD Phase, 32 healthy volunteers were randomized (3:1) to Compound A (5, 15, 20, 25 or 30 mg) or placebo. The study featured an adaptive design. A crossover food effect cohort (N=10) was also completed with single doses of 20 mg. A sub-set of 8 male subjects were also assessed with Transcranial Magnetic Stimulation (TMS) for effects on cortical excitability (see Examples 4 and 5).\nRepeat doses of Compound A (15 mg QD) were evaluated in a fasted and fed state over 7 and 10 days, respectively. Repeat doses of Compound A (25 mg QD) were also evaluated in a fed state over 10 days.\nCompound A was formulated as an immediate release capsule. Serial plasma PK samples were collected for all cohorts. Safety evaluations throughout the study included adverse event (AE) monitoring, clinical laboratory tests, vital signs, ECGs, physical examinations and Columbia-Suicide Severity Rating Scale."}, "cortical excitability": {"test_system": "cortical excitability", "experiment": "TMS crossover study, TMS-induced oscillations", "format": "in vivo, human", "protocol": "Before drug intake, at baseline, TMS induced an early increase of theta/alpha power followed by a beta power decrease (de-synchronization) and a final late response of increased beta power. The effects of the active compound on TMS-induced oscillations were then analysed by means of a cluster-based permutation analysis following the same procedure as adopted in the analysis of TEPs. Theta (4-7 Hz), alpha (8-12 Hz) and beta (13-30 Hz) TMS-induced oscillations were compared from 30 ms (the first time-frequency point considered artefact free) to 800 ms between drug conditions. This method was preferred instead of a predetermined set of time windows, given the absence of a consensus for time windows of interest to be used in the TMS induced oscillation analysis. Also, the present cluster-based statistics approach is appropriate for exploratory analyses, as it minimizes false-positives involved in testing multiple time-points."}, "[3]": {"details": "at highest Compound A plasma concentration vs pre-dose"}}, "note": "Where two headings read alike, the source gives them in different places."}
{"smiles": "Cc1cc(N2CCc3cc(F)ccc3C2)cc(C)c1NC(=O)CC(C)(C)C", "note": "[Compound A, N-[4-(6-fluoro-3,4-dihydro-1H-isoquinolin-2-yl)-2,6-dimethylphenyl]-3,3-dimethylbutanamide]", "values": [{"measurement": "shift of power spectra of resting state EEGs", "setting": "[1]; 20 mg", "result": "toward lower frequencies"}, {"measurement": "Modulation of resting state EEG bands, Delta", "setting": "[1]; 2 h after dosing vs pre-dose", "result": "↑ Delta"}, {"measurement": "Modulation of resting state EEG bands, Theta", "setting": "[1]; 2 h after dosing vs pre-dose", "result": "↑ Theta"}, {"measurement": "Modulation of resting state EEG bands, Beta", "setting": "[1]; 4 h after dosing vs pre-dose", "result": "↑ Beta"}, {"measurement": "Modulation of resting state EEG bands, Delta", "setting": "[1]; 4 h after dosing vs pre-dose", "result": "↑ Delta"}, {"measurement": "Modulation of resting state EEG bands, Theta", "setting": "[1]; 4 h after dosing vs pre-dose", "result": "↑ Theta"}, {"measurement": "resting state delta power vs pre-dose", "setting": "[1]; all available subjects, 2 h p<0.001, 4 h p<0.001", "result": "significantly increased"}, {"measurement": "resting state beta band power vs pre-dose", "setting": "[1]; all available subjects, 2 h p=0.005, 4 h p<0.001, 6 h p=0.009", "result": "significantly increased"}, {"measurement": "resting state theta power vs pre-dose", "setting": "[1]; all available subjects, 2 h p=0.006, 4 h two clusters p=0.008 and p=0.03", "result": "significantly increased"}, {"measurement": "Modulation of resting state EEG bands, Beta", "setting": "[1]; [3]", "result": "↑ Beta"}, {"measurement": "Modulation of resting state EEG bands, Delta", "setting": "[1]; [3]", "result": "↑ Delta"}, {"measurement": "Modulation of resting state EEG bands, Theta", "setting": "[1]; [3]", "result": "↑ Theta"}, {"measurement": "resting state delta power vs pre-dose", "setting": "[1]; concentration analysis N=16, high plasma exposure, p<0.001", "result": "increase in power"}, {"measurement": "resting state beta power vs pre-dose", "setting": "[1]; concentration analysis N=16, high plasma exposure, p=0.005", "result": "increase in power"}, {"measurement": "resting state theta power vs pre-dose", "setting": "[1]; concentration analysis N=16, high plasma exposure, p=0.01", "result": "increase in power"}, {"measurement": "resting state delta power compared to placebo", "setting": "[1]; post-dose minus pre-dose, p<0.001", "result": "overall increase of power"}, {"measurement": "resting state beta power compared to placebo", "setting": "[1]; post-dose minus pre-dose, p=0.003", "result": "overall increase of power"}, {"measurement": "resting state theta power compared to placebo", "setting": "[1]; post-dose minus pre-dose, p=0.02", "result": "overall increase of power"}, {"measurement": "resting state delta power vs pre-dose", "setting": "[1]; subjects with drug exposure, 2 h p=0.001, 4 h p<0.001", "result": "significantly increased"}, {"measurement": "resting state beta band power vs pre-dose", "setting": "[1]; subjects with drug exposure, 2 h p=0.01, 4 h p<0.001", "result": "significantly increased"}, {"measurement": "resting state theta power vs pre-dose", "setting": "[1]; subjects with drug exposure, 2 h p=0.01, 4 h p=0.01", "result": "significantly increased"}, {"measurement": "Cmax", "setting": "[2]; multiple doses", "result": "≤ 107", "unit": "ng/mL"}, {"measurement": "Cmax", "setting": "[2]; single doses", "result": "≤ 104", "unit": "ng/mL"}, {"measurement": "SAEs, deaths, ECG or laboratory findings", "setting": "[2]; single and multiple doses", "result": "no SAEs, deaths, or clinically significant ECG or laboratory findings"}, {"measurement": "severity of the majority of AEs", "setting": "[2]; single and multiple doses, e.g. dizziness, sedation", "result": "mild or moderate"}, {"measurement": "safety and tolerability", "setting": "[2]; single doses of up to 30 mg and multiple doses of 25 mg QD", "result": "safe and well-tolerated"}, {"measurement": "Modulation of TMS-induced oscillations, Alpha", "setting": "cortical excitability; 2 h after dosing vs pre-dose", "result": "Not significant"}, {"measurement": "Modulation of TMS-induced oscillations, Beta", "setting": "cortical excitability; 2 h after dosing vs pre-dose", "result": "Not significant"}, {"measurement": "Modulation of TMS-induced oscillations, Theta", "setting": "cortical excitability; 2 h after dosing vs pre-dose", "result": "Not significant"}, {"measurement": "Modulation of TMS-induced oscillations, Alpha", "setting": "cortical excitability; 4 h after dosing vs pre-dose", "result": "↓ Alpha 250-390 ms"}, {"measurement": "Modulation of TMS-induced oscillations, Beta", "setting": "cortical excitability; 4 h after dosing vs pre-dose", "result": "↑ Beta 250-330 ms"}, {"measurement": "Modulation of TMS-induced oscillations, Theta", "setting": "cortical excitability; 4 h after dosing vs pre-dose", "result": "↓ Theta 30-180 ms"}, {"measurement": "theta TMS-induced oscillations", "setting": "cortical excitability; all available subjects, 2 h post-dose", "result": "trend to suppress"}, {"measurement": "alpha TMS-induced oscillations", "setting": "cortical excitability; all available subjects, 4 h, p=0.03, 250 to 400 ms", "result": "suppressed"}, {"measurement": "theta induced oscillations", "setting": "cortical excitability; all available subjects, 6 h, p=0.03, 80 to 300 ms", "result": "significant depression"}, {"measurement": "alpha band TMS-induced oscillations", "setting": "cortical excitability; all available subjects, 6 h, trend p=0.07, 270-390 ms", "result": "trend to suppress"}, {"measurement": "Modulation of TMS-induced oscillations, Alpha", "setting": "cortical excitability; [3]", "result": "↓ Alpha 220-400 ms"}, {"measurement": "Modulation of TMS-induced oscillations, Beta", "setting": "cortical excitability; [3]", "result": "↑ Beta 210-310 ms"}, {"measurement": "Modulation of TMS-induced oscillations, Theta", "setting": "cortical excitability; [3]", "result": "↓ Theta 30-390 ms"}, {"measurement": "early theta TMS-induced oscillations", "setting": "cortical excitability; concentration analysis N=16, p<0.001, 30 to 390 ms", "result": "suppressed"}, {"measurement": "alpha TMS-induced oscillations", "setting": "cortical excitability; concentration analysis N=16, p=0.02, 220 to 400 ms", "result": "suppressed"}, {"measurement": "beta TMS-induced power", "setting": "cortical excitability; concentration analysis N=16, p=0.04, 220 to 310 ms", "result": "increased"}, {"measurement": "TMS-induced oscillations", "setting": "cortical excitability; subjects with drug exposure, 2 h post-dose", "result": "did not modulate oscillations"}, {"measurement": "early theta TMS-induced oscillations", "setting": "cortical excitability; subjects with drug exposure, 4 h, p=0.03, 30 to 180 ms", "result": "suppressed"}, {"measurement": "alpha TMS-induced oscillations", "setting": "cortical excitability; subjects with drug exposure, 4 h, p=0.03, 250 to 390 ms", "result": "suppressed"}, {"measurement": "beta TMS-induced desynchronization", "setting": "cortical excitability; subjects with drug exposure, 4 h, p=0.04, 250 to 330 ms", "result": "increased"}, {"measurement": "theta induced oscillations", "setting": "cortical excitability; subjects with drug exposure, 6 h, p<0.001, 30 to 280 ms", "result": "significant depression"}]}
